Test system: breast cancer cells isolated from tumors of MMTV-CreBRCA1^f/fp53+/− mice
Test: Rad51 foci immunofluorescence after ionizing radiation
Assay type: cell-based, mouse
Conditions: pre-treatment, 10 Gy, 6 hours post-irradiation
Description: FIGS. 5B-5E are immunofluorescence images of breast cancer cells isolated from primary tumors from MMTV-CreBRCA1^f/fp53+/− mice either treated with vehicle control (5B and 5C) or Compound A (5D and 5E) for 18 hours, followed by irradiation with 10 Gy IR 6 hours later cells, using antibodies against Rad51 and counterstained with DAPI. Rad51 foci are depicted as lighter punctuate signals within the cells (5C).
Cells were plated on coverslips in a 6-well plates and incubated overnight at 37° C. with 5% CO2 before drug treatment. Cells were exposed to 5-(2,6-dimorpholinopyrimidin-4-yl)-4-(trifluoromethyl)pyridin-2-amine (Compound A) for […] followed by irradiation (10 Gy). Cells were fixed with 3% paraformaldehyde and 2% sucrose diluted in PBS 6 h post-irradiation and subsequently permeabilized with 0.5% TritonX-100 buffer (20 mM HEPES pH7.4, 50 mM NaCl, 3 mM MgCl, 300 mM sucrose) for 3 minutes on ice. Cells were incubated with a primary rabbit anti human Rad-51 antiserum at 1:500 dilution in hybridization buffer (5% goat serum, 0.5% NaN3, 1×PBS) for 30 min at 37° C. and subsequently washed thrice in PBS before incubation with secondary antibody for 30 minutes at 37° C. Secondary antibody used was a donkey anti-rabbit Alexafluor 488 conjugated (Invitrogen) at a concentration of 1:50. […]

Nc1cc(C(F)(F)F)c(-c2cc(N3CCOCC3)nc(N3CCOCC3)n2)cn1 [Compound A, 5-(2,6-dimorpholinopyrimidin-4-yl)-4-(trifluoromethyl)pyridin-2-amine]
formation of Rad51 foci in response to ionizing radiation: completely blocked
